Assay results as given in patent publication US12171755B2, “PAPD5 inhibitors and methods of use thereof” (Children's Medical Center Corporation, priority 2017, dated 2024).

Target: T1, PAPD5 (Homo sapiens, UniProt Q8NDF8)
T1 construct: made in house
Experiment: High-throughput luminescence (KinaseGlo) RNA polyadenylation assay, ATP utilization by recombinant PAPD5
Format: biochemical
Conditions: Table 4 (entries of Table 5), ratio of luminescence with inhibitor to DMSO; for Fold-change determined at compound concentration 33 μM: 33 μM compound; for Fold-change determined at compound concentration 100 μM: 100 μM compound, higher = higher inhibition
Method: Optimal conditions for an in vitro RNA polyadenylation assay using recombinant PAPD5, ATP and an oligonucleotide substrate were identified. The HTS assay involved ATP utilization by PAPD5, which reads out as a decreased luminescence signal produced by luciferase (KinaseGlo, Promega, Madison, WI).
100 nl of compound dissolved in DMSO was transferred to each well of the assay plate via pin transfer. For negative control wells, DMSO alone was added. Plates were gently vortexed for 5 seconds, then incubated for 2 hours at room temperature.
After 2 hours, 5 ul of luciferase (Promega KinaseGlo, Madison, WI) was added using a MultiDrop Combi (Thermo Fisher Scientific, Waltham, MA). The mixture was gently vortexed for 5 seconds and incubated for 10 minutes at room temperature. Plates were spun for 1 minute prior to luminescence measurements. Luminescent measurements were quantitated using a PerkinElmer EnVision™ plate reader.
˜100,000 compounds from various libraries at the ICCB-Longwood were screened in this manner in duplicate.
The fold change was the ratio of luminescence from a sample with inhibitor compared to that with DMSO. Thus, a higher number indicates higher inhibition.

T1 sequence (Q8NDF8 68-698 isoform Q8NDF8-5): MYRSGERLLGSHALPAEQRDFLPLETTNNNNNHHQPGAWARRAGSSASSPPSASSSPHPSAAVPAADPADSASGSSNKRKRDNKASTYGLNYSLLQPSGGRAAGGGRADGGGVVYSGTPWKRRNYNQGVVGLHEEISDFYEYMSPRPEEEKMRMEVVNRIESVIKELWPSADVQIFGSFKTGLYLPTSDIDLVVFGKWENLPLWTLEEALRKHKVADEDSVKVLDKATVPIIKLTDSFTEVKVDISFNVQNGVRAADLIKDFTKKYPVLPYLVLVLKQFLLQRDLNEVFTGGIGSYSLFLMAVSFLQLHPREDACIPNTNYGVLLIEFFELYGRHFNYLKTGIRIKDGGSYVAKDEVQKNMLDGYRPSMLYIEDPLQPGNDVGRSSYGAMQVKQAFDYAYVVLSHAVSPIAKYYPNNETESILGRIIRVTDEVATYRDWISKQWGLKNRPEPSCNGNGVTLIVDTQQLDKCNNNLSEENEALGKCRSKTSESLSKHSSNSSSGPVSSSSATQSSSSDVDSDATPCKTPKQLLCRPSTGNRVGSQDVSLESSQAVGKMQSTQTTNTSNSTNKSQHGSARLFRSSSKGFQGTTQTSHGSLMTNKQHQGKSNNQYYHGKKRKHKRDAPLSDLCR

Row | Fold-change determined at compound concentration 33 μM | Fold-change determined at compound concentration 100 μM | SMILES
1 | 1.142 | 1.518 | Cc1ccc(CNC(=O)Nc2cn(CC(C)C)c(=O)c3ccccc23)cc1 [Entry 57, 1-[(4-methylphenyl)methyl]-3-[2-(2-methylpropyl)-1-oxoisoquinolin-4-yl]urea]
2 | 1.099 | 1.574 | CC(C)Cn1cc(NC(=O)NCc2ccccc2)c2ccccc2c1=O [Entry 57a, 1-benzyl-3-[2-(2-methylpropyl)-1-oxoisoquinolin-4-yl]urea]
3 | 1.076 | 1.364 | CC(C)Cn1cc(NC(=O)NCc2ccc(Cl)cc2)c2ccccc2c1=O [Entry 58, 1-[(4-chlorophenyl)methyl]-3-[2-(2-methylpropyl)-1-oxoisoquinolin-4-yl]urea]
4 | 1.113 | 1.69 | CCOc1ccccc1CNC(=O)Nc1cn(CC(C)C)c(=O)c2ccccc12 [Entry 59, 1-[(2-ethoxyphenyl)methyl]-3-[2-(2-methylpropyl)-1-oxoisoquinolin-4-yl]urea]
5 | 1.088 | 1.621 | COc1cccc(CNC(=O)Nc2cn(CC(C)C)c(=O)c3ccccc23)c1 [Entry 60, 1-[(3-methoxyphenyl)methyl]-3-[2-(2-methylpropyl)-1-oxoisoquinolin-4-yl]urea]
6 | 1.164 | 1.507 | COc1ccc(CNC(=O)Nc2cn(CC(C)C)c(=O)c3ccccc23)c(OC)c1 [Entry 60a, 1-[(2,4-dimethoxyphenyl)methyl]-3-[2-(2-methylpropyl)-1-oxoisoquinolin-4-yl]urea]
7 | 1.07 | 1.235 | CCc1cccc(NC(=O)Nc2cn(C)c(=O)c3ccccc23)c1 [Entry 61, 1-(3-ethylphenyl)-3-(2-methyl-1-oxoisoquinolin-4-yl)urea]

Second part, the compound before the results:

Row | SMILES | Fold-change determined at compound concentration 33 μM | Fold-change determined at compound concentration 100 μM
8 | CCOC(=O)C1CCN(c2nnc(Cc3ccncc3)c3ccccc23)CC1 [Entry 53, Ethyl 1-[4-(pyridin-4-ylmethyl)phthalazin-1-yl]piperidine-4-carboxylate] | 1.308 | 1.807
9 | Cc1ccc(-c2nnc(Nc3ccc(OCC(N)=O)cc3)c3ccccc23)cc1S(=O)(=O)N(C)C [Entry 54, 2-[4-({4-[3-(dimethylsulfamoyl)-4-methylphenyl]phthalazin-1-yl}amino)phenoxy]acetamide] | 1.324 | 1.562
10 | c1ccc(CC2CCN(c3nnc(Cc4ccncc4)c4ccccc34)CC2)cc1 [Entry 55, 1-(4-benzylpiperidin-1-yl)-4-(pyridin-4-ylmethyl)phthalazine] | 1.262 | 1.592
11 | Cc1ccc(-c2nnc(Nc3ccc(OCC(N)=O)cc3)c3ccccc23)cc1S(=O)(=O)NCC1CCCO1 (stereo not drawn) [Entry 56, 2-[4-[[4-[4-methyl-3-(oxolan-2-ylmethylsulfamoyl)phenyl]phthalazin-1-yl]amino]phenoxy]acetamide] | 1.226 | 1.487
12 | NC1CCN(c2nc3c(cc2F)c(=O)c(C(=O)O)cn3-c2ccc(F)cc2F)C1 (stereo not drawn) [Entry 62, 7-(3-aminopyrrolidin-1-yl)-1-(2,4-difluorophenyl)-6-fluoro-4-oxo-1,4-dihydro-1,8-naphthyridine-3-carboxylic acid] | 1.298 | 1.41
13 | COc1cccc(CNC2=Nc3ccccc3NC23CCCCC3)c1 [Entry 63, N-[(3-methoxyphenyl)methyl]spiro[4H-quinoxaline-3,1′-cyclohexane]-2-amine] | 1.113 | 1.417
14 | O=C(CCCn1c(=O)c2cccn2c2ccc(Br)cc21)N1CCCC1 [Entry 65, 7-bromo-5-(4-oxo-4-pyrrolidin-1-ylbutyl)pyrrolo[1,2-a]quinoxalin-4-one] | 1.23 | 1.394
15 | CCCCN(CC)C(=O)CCCn1c(=O)c2cccn2c2ccccc21 [Entry 66, N-butyl-N-ethyl-4-(4-oxopyrrolo[1,2-a]quinoxalin-5-yl)butanamide] | 1.083 | 1.229
16 | COc1ccc(NC(=O)CCn2c(=O)c3cccn3c3ccccc32)c(OC)c1 [Entry 67, N-(2,4-dimethoxyphenyl)-3-(4-oxopyrrolo[1,2-a]quinoxalin-5-yl)propanamide] | 1.122 | 1.238
17 | CCN(CC)CCNC(=O)c1ccc(Cn2c(=O)c3cccn3c3cccnc32)cc1 [Entry 69, N-(2-(diethylamino)ethyl)-4-((6-oxopyrido[2,3-e]pyrrolo[1,2-a]pyrazin-5(6H)-yl)methyl)benzamide] | 1.116 | 1.223
18 | CN(C)CCNC(=O)c1ccc(Cn2c(=O)c3cccn3c3cccnc32)cc1 [Entry 70, N-[2-(dimethylamino)ethyl]-4-[(6-oxopyrido[2,3-e]pyrrolo[1,2-a]pyrazin-5(6H)-yl)methyl]benzamide] | 1.103 | 1.206
19 | CCCCn1c(=O)c2sccc2n2c(=S)[nH]nc12 [Entry 71, 4-butyl-1-thioxo-2,4-dihydrothieno[2,3-e][1,2,4]triazolo[4,3-a]pyrimidin-5(1H)-one] | 1.173 | 1.531
20 | CCCn1c(=O)c2cc(F)ccc2n2c(=S)[nH]nc12 [Entry 72, 7-fluoro-4-propyl-1-thioxo-2,4-dihydro[1,2,4]triazolo[4,3-a]quinazolin-5(1H)-one] | 1.099 | 1.256
21 | CC(C)Cn1c(=O)c2ccccc2n2c(=S)[nH]nc12 [Entry 73, 4-isobutyl-1-thioxo-2,4-dihydro[1,2,4]triazolo[4,3-a]quinazolin-5(1H)-one] | 1.093 | 1.278
22 | CC(C)CCn1c(=O)c2ccccc2n2c(=S)[nH]nc12 [Entry 74, 1-mercapto-4-(3-methylbutyl)[1,2,4]triazolo[4,3-a]quinazolin-5(4H)-one] | 1.372 | 1.87
23 | O=c1c2sccc2n2c(=S)[nH]nc2n1Cc1ccccc1 [Entry 75, 4-benzyl-1-thioxo-2,4-dihydrothieno[2,3-e][1,2,4]triazolo[4,3-a]pyrimidin-5(1H)-one] | 1.11 | 1.324
24 | CCc1ccc(Cn2c(=O)c3sccc3n3c(=S)[nH]nc23)cc1 [Entry 76, 4-(4-ethylbenzyl)-1-thioxo-2,4-dihydrothieno[2,3-e][1,2,4]triazolo[4,3-a]pyrimidin-5(1H)-one] | 1.7195 | 1.423
